Results from publication PMC6973011, “Stafia‐1: a STAT5a‐Selective Inhibitor Developed via Docking‐Based Screening of in Silico O‐Phosphorylated Fragments” (Chemistry (Weinheim an Der Bergstrasse, Germany), 2019).
Like-named read-outs stand apart in the source and are kept apart here.

Experiments:
STAT5b = molecular target: T1, STAT5b (Homo sapiens, UniProt P51692); assay: Fluorescence polarization competitive binding assay, STAT5b; conditions: for inhibition at 100 µM: read-out: Inhibition of STAT5b at 100 µM; for inhibition at 200 µM: read-out: STAT5b inhibition at 200 μM
T1 construct: made in house
T1 sequence (P51692 1-787): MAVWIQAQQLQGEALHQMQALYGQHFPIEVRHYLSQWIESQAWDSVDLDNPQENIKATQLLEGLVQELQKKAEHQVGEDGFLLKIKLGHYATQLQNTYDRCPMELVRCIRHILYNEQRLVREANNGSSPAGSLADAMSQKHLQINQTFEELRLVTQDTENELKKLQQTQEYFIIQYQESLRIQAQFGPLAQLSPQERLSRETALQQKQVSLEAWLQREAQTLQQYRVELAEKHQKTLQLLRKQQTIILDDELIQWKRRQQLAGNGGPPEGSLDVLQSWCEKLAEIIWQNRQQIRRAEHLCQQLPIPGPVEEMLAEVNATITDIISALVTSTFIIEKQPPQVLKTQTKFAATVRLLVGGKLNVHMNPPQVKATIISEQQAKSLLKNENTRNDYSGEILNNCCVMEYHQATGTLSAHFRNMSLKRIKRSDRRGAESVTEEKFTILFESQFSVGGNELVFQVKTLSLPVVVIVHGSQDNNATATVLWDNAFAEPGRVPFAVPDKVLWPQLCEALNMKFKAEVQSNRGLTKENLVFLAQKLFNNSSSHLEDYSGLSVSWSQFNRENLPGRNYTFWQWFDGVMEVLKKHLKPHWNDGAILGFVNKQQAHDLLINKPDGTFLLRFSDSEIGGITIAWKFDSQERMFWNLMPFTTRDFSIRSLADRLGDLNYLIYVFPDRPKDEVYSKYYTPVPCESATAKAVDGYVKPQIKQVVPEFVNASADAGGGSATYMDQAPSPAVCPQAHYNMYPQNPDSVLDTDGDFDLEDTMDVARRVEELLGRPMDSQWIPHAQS

STAT3 = STAT3 (Homo sapiens, UniProt P40763); assay: Fluorescence polarization competitive binding assay, STAT3 SH2 domain; conditions: for inhibition at 100 µM: read-out: Inhibition of STAT3 at 100 µM; for inhibition at 200 µM: read-out: STAT3 inhibition at 200 μM
Chain of STAT3 (P40763 whole entry, species assumed, the tested form may be a part): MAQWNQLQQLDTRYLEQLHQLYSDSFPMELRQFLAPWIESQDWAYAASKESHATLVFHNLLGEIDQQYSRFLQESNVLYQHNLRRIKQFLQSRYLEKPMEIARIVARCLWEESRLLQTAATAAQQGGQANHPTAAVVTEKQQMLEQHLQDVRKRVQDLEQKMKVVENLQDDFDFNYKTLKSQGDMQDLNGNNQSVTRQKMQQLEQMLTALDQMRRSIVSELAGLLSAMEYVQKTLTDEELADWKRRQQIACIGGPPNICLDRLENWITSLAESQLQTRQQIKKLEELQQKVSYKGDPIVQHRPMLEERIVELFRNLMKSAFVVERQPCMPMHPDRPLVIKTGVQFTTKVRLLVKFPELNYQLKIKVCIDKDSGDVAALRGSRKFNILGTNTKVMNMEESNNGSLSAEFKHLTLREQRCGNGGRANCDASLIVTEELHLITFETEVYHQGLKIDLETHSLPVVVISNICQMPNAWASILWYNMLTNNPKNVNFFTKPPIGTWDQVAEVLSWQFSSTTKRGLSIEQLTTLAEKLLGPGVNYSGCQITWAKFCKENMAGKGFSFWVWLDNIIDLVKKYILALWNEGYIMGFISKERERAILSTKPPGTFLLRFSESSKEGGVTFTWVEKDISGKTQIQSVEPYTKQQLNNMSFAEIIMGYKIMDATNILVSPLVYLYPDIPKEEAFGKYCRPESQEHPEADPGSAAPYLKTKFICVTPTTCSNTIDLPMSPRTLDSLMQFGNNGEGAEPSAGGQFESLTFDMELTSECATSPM
Description: Expression and purification of STAT1, STAT3, STAT4, STAT5a, STAT5b, STAT5a Trp566Arg, STAT5b Arg566Trp, STAT5b 6M, STAT5b 7M, STAT6, and Lck have previously been described.[4, 12] STAT proteins were purified over a single His-Bind resin (Millipore) column.
Wild-type and mutant STAT5a/b proteins used for activity analysis of 20 were purified over two successive His-Bind resin columns.[4, 13]
Fluorescence Polarization assays
Competitive binding assays based on fluorescence polarization were essentially carried out as described.[14] Unless stated otherwise, the following final concentration of proteins were used:
STAT4; 105 nM for STAT6; 30 nM for Lck. Final concentration of all peptides: 10 nM. Peptides used: 5-carboxyfluorescein-GpYLVLDKW for STAT5a/b and point mutants thereof; 5-carboxyfluorescein-GpYLPQTV-NH2 for STAT3; 5-carboxyfluorescein-GpYDKPHVL for STAT1; 5-carboxyfluorescein-GpYLPQNID-OH for STAT4; 5-carboxyfluorescein-
analysis of 20 against wild-type (wt) STAT5a/b and STAT5a/b point mutants, the following concentrations of double-purified protein were used, which reflect the approximate Kd values of the interactions with 5-carboxyfluorescein-GpYLVLDKW: STAT5a wt: 147 nM; STAT5b wt:
STAT5b 6M: 80 nM; STAT5b 7M: 282 nM. Assay buffer: 10 mM Tris (pH 8.0), 50 mM NaCl, 1 mM EDTA, 1 mM DTT, 0.1 % Nonidet P-40 substitute, and 2 % DMSO in water. A major part of the pipetting was done using a Biomek FXp sceening robot (Beckman-Coulter). Protein and test compounds were incubated for 1 h, followed by addition of the fluorescein-labeled peptide.
Fluorescence polarization was measured after another hour using an Infinite F500 plate reader (Tecan). IC50 values were converted to Ki-values using the published equation.[15]

STAT5a = molecular target: T2, STAT5a (Homo sapiens, UniProt P42229); assay: Fluorescence polarization competitive binding assay, STAT5a; conditions: for inhibition at 100 µM: read-out: Inhibition of STAT5a at 100 µM
T2 construct: made in house
T2 sequence (P42229 1-794): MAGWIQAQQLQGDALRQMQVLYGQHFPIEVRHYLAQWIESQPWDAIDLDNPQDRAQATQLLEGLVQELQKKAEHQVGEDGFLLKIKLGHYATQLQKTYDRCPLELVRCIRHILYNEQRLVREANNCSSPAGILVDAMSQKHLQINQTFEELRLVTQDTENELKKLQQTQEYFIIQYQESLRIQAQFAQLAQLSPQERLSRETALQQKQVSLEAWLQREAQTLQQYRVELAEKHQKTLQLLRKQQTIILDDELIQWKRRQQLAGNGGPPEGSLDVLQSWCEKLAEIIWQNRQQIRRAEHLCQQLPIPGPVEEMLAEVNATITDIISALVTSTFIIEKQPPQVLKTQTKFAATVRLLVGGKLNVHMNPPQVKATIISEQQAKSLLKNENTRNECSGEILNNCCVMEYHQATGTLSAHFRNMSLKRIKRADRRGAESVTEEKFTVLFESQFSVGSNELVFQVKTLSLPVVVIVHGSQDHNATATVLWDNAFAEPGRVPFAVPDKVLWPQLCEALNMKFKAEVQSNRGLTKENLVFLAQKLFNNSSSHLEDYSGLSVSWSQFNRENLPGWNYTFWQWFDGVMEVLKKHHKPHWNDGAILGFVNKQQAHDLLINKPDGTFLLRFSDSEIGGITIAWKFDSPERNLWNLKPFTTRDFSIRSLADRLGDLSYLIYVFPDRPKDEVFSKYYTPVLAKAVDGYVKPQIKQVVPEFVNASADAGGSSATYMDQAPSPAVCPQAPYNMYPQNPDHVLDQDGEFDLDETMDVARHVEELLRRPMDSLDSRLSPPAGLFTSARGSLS

[1] = FP assay, IC50 converted to Ki, read-out: STAT5a K i

Row | SMILES | inhibition at 100 µM (STAT5b) [%] | inhibition at 100 µM (STAT3) [%] | inhibition at 100 µM (STAT5a) [%] | IC50 (STAT5b) [µM] | Ki (STAT5b) [µM] | inhibition at 200 µM (STAT3) [%] | IC50 (STAT5a) [µM] | Ki (STAT5a) [µM] | other results
1 | O=C(C=Cc1ccccc1C(F)(F)F)c1cccc(OP(=O)(O)O)c1 [Compound 3] | 31 ± 3 | 53 ± 3 | 37 ± 9 | – | – | – | – | – | –
2 | COc1ccccc1-c1cc(OP(=O)(O)O)cc(-c2ccccc2OC)c1 [Compound 14] | – | – | – | 158 ± 1 | 78.6 ± 0.4 | 28 ± 1 | 88.7 ± 6.1 | 43.9 ± 3 | –
3 | COc1cc(-c2cc(-c3cc(OC)c(OC)c(OC)c3)cc(C(F)P(=O)(O)O)c2)cc(OC)c1OC (centres unmarked) [Compound 26] | – | – | – | – | – | – | – | – | Ki (STAT5a; [1]): 28 ± 3 µM; selectivity over STAT5b and other STAT proteins (STAT5a; FP assays): retained selectivity over STAT5b and other STAT proteins
4 | O=C(c1ccc([N+](=O)[O-])cc1)c1coc2ccc(OP(=O)(O)O)cc12 [Compound 5] | 88 ± 1 | 26 ± 8 | 87 ± 2 | – | – | – | – | – | –
5 | COc1ccc(-c2cc(OP(=O)(O)O)cc(-c3ccc(OC)cc3)c2)cc1 [Compound 12] | – | – | – | 77.5 ± 0.4 | 38.5 ± 0.2 | – | 27.9 ± 1.7 | 13.8 ± 0.8 | IC50 (STAT3): 156 ± 12 µM; Ki (STAT3): 77.1 ± 5.8 µM
6 | CN(C1CCCCC1)S(=O)(=O)c1cccc(C(=O)N2CCN(c3ccc(OP(=O)(O)O)cc3)CC2)c1 [Compound 9] | 23 ± 8 | 33 ± 5 | 41 ± 8 | – | – | – | – | – | –
7 | COc1cccc(-c2cc(OP(=O)(O)O)cc(-c3cccc(OC)c3OC)c2)c1OC [Compound 16] | – | – | – | – | – | 15 ± 2 | 45.1 ± 9.8 | 22.3 ± 4.8 | inhibition at 200 µM (STAT5b): 40 ± 2%
8 | CC(=O)Nc1ccc(C=CC(=O)c2cccc(OP(=O)(O)O)c2)cc1 [Compound 4] | 52 ± 4 | 29 ± 7 | 57 ± 2 | – | – | – | – | – | –
9 | O=P(O)(O)Oc1cc(-c2ccc3c(c2)OCO3)cc(-c2ccc3c(c2)OCO3)c1 [Compound 18] | – | – | – | 56.4 ± 1 | 28 ± 0.5 | – | 28.4 ± 4.4 | 14 ± 2.1 | IC50 (STAT3): 129 ± 5 µM; Ki (STAT3): 63.8 ± 2.3 µM
10 | COc1cc(-c2cc(CP(=O)(O)O)cc(-c3cc(OC)c(OC)c(OC)c3)c2)cc(OC)c1OC [Compound 24] | – | – | – | – | – | – | – | – | Ki (STAT5a; [1]): 75 ± 13 µM
11 | COc1cc(-c2cc(-c3cc(OC)c(OC)c(OC)c3)cc(C(F)(F)P(=O)(O)O)c2)cc(OC)c1OC [Compound 25] | – | – | – | – | – | – | – | – | Ki (STAT5a; [1]): 52 ± 3 µM
12 | COc1ccc(-c2cc(OP(=O)(O)O)cc(-c3ccc(OC)c(OC)c3OC)c2)c(OC)c1OC [Compound 21] | – | – | – | – | – | 15 ± 3 | 111 ± 10 | 55.2 ± 4.9 | inhibition at 200 µM (STAT5b): 28 ± 2%
13 | COc1ccc(-c2cc(O)cc(-c3ccc(OC)cc3)c2)cc1 [Compound 12 a] | – | – | – | – | – | – | – | – | STAT5b inhibition at 200 μM (STAT5b; FP assay, 200 μM (highest concentration tested)): no inhibition; STAT3 inhibition at 200 μM (STAT3; FP assay, 200 µM): no inhibition; STAT5a inhibition at 200 μM (STAT5a; FP assay, 200 µM): no inhibition
14 | O=P(O)(O)Oc1cc(-c2ccc3c(c2)OCCO3)cc(-c2ccc3c(c2)OCCO3)c1 [Compound 19] | – | – | – | 71.2 ± 5.7 | 35.4 ± 2.8 | – | 22.5 ± 3.8 | 11.1 ± 1.9 | IC50 (STAT3): 104 ± 4 µM; Ki (STAT3): 51.2 ± 2 µM
15 | COc1cccc(-c2cc(OP(=O)(O)O)cc(-c3cccc(OC)c3)c2)c1 [Compound 13] | – | – | – | 86.7 ± 3.1 | 43.1 ± 1.5 | 51 ± 2 | 32.3 ± 5.7 | 16 ± 2.8 | –
16 | COc1ccc(-c2cc(OP(=O)(O)O)cc(-c3ccc(OC)c(OC)c3)c2)cc1OC [Compound 15] | – | – | – | – | – | 43 ± 2 | 33.4 ± 5.2 | 16.5 ± 2.5 | inhibition at 200 µM (STAT5b): 44 ± 3%
17 | COc1cc(OC)cc(-c2cc(OP(=O)(O)O)cc(-c3cc(OC)cc(OC)c3)c2)c1 [Compound 17] | – | – | – | 73.4 ± 5 | 36.5 ± 2.5 | 50 ± 3 | 34.7 ± 4.5 | 17.1 ± 2.2 | –
18 | O=P(O)(O)Oc1cc(-c2cc(F)c(F)c(F)c2)cc(-c2cc(F)c(F)c(F)c2)c1 [Compound 22] | – | – | – | 46.9 ± 0.9 | 23.3 ± 0.4 | – | 21.9 ± 2.1 | 10.8 ± 1.1 | IC50 (STAT3): 102 ± 9 µM; Ki (STAT3): 50.4 ± 4.2 µM
19 | O=C(Nc1cccc(OP(=O)(O)O)c1)c1cccc(S(=O)(=O)N2CCCC2)c1 [Compound 7] | 4 ± 9 | 3 ± 2 | 26 ± 17 | – | – | – | – | – | –
20 | O=C(Cn1ccc2ccccc21)Nc1cccc(OP(=O)(O)O)c1 [Compound 6] | 24 ± 14 | 11 ± 6 | 46 ± 6 | – | – | – | – | – | –
21 | O=C(C=Cc1c(F)c(F)c(F)c(F)c1F)c1cccc(OP(=O)(O)O)c1 [Compound 2] | 37 ± 2 | 43 ± 2 | 51 ± 4 | – | – | – | – | – | –
22 | COc1cc(-c2cccc(OP(=O)(O)O)c2)cc(OC)c1OC [Compound 23] | – | – | – | – | – | 40 ± 1 | 106 ± 4 | 53 ± 2.1 | inhibition at 200 µM (STAT5b): 39 ± 1%; drop in activity against STAT5a on deletion of one phenyl ring of 20 (STAT5a; compared with 20): 5 fold
23 | O=P(O)(O)Oc1cc(-c2ccccc2)cc(-c2ccccc2)c1 [Compound 11] | – | – | – | 95 ± 3 | 48.4 ± 2 | 48 ± 1 | 47.9 ± 4.3 | 23.7 ± 2.1 | –
24 | O=C(CCNS(=O)(=O)c1ccc(C2CCCCC2)cc1)N1CCN(c2ccc(OP(=O)([O-])[O-])cc2)CC1.[Na+].[Na+] [Compound 8] | – | – | – | – | – | – | – | – | Inhibition of STAT5b at 100 µM (STAT5b; FP assay, 100 µM): 63±1%; Inhibition of STAT3 at 100 µM (STAT3; FP assay, 100 µM): 33±2%; Inhibition of STAT5a at 100 µM (STAT5a; FP assay, 100 µM): 65±5%
25 | COc1ccc(-c2cc(OP(=O)(O)O)cc(-c3ccc(Cl)cc3)c2)cc1 [Compound 1] | 73 ± 3 | 43 ± 5 | 73 ± 5 | 49.4 ± 3.3 | 24.5 ± 1.6 | – | 39.9 ± 1.9 | 19.7 ± 0.9 | IC50 (STAT3): 120 ± 10 µM; Ki (STAT3): 59.2 ± 5 µM
26 | O=P(O)(O)Oc1cc(-c2ccc(Cl)cc2)cc(-c2ccc(Cl)cc2)c1 [Compound 10] | – | – | – | 37.7 ± 0.05 | 18.7 ± 0.02 | – | 42.2 ± 3.3 | 20.9 ± 1.6 | IC50 (STAT3): 38.4 ± 1.7 µM; Ki (STAT3): 18.9 ± 0.9 µM
